Assay results taken from article PMC4821601, “The Interactions of P-Glycoprotein with Antimalarial Drugs, Including Substrate Affinity, Inhibition and Regulation” (PLoS ONE, 2016).
Read-outs that look alike come from different tables or passages of the source. Marks after values point to notes of the source that are not given here.

Columns and labels:
Caco-2 cell monolayers = test: Bidirectional transport (Papp, efflux ratio) of antimalarials through Caco-2 cell monolayers; assay type: in vitro ADME, human
Procedure: (§1) The initial experiments were conducted in mid-40s passage cells and repeated in early 80s passage Caco-2 cells. […] In order to maintain equivalent transport medium (HBSS/HBSS with inhibitor) level both outside and inside the chambers, 300 μL was used as medium in the apical chambers and 600 μL in the basolateral chambers. […] Drugs were co-incubated with MRCP, BCRP and ATP hydrolysis blockers to determine the involvement of other efflux mechanisms. Prior to the experiment, the transport medium, HBSS or HBSS with P-gp inhibitors were pre-incubated with the cells for 30 minutes. Following incubation, inserts were placed in new well plates and donor chamber is replaced with drug or drug with inhibitor and the receiver chamber with blank HBSS or HBSS with inhibitor. Transport medium was collected from the receiver chamber after stirring at time intervals of 30, 60, 90 and 120 minutes and was replaced with the same volume of fresh HBSS, or HBSS with inhibitor, when P-gp inhibitors were used in the study. At the end of the experiment 100 μL of medium was removed from the donor chamber in addition to medium collected from the receiver chamber during the study. The cells were then washed thoroughly in cold (4°C) PBS and cell membranes attached to the inserts were sonicated for 10 minutes in a sonicating water bath and centrifuged at 10,000 g for 10 minutes. Supernatant was frozen at -80°C until assayed. […] CL.vol=[…].vol = clearance volume (mL), n = time (min), Aa = amount in acceptor compartment at time n (pmols), Cd0 = concentration in donor compartment at time zero (nM), Vd = volume of the donor compartment (mL), Ca = concentration in acceptor compartment at the previous time point (nM), Vs = sample volume of previous time point (mL), Ac = amount of compound associated with the cells (pmol), Nfin = final time point (min). […] The cleared volume was plotted against time and the slope of the regression line was divided by the surface area to obtain the Papp values. […] The method from Davis and colleagues was adopted with slight modifications. Separations were performed using an Apollo C18 (5 μm, 4.6x150mm) column attached to a matched guard column (5 μm, 4.6x5.5 mm). […] The injection volume was 40 μL and column oven was maintained at 35°C. The analytes were detected at 222 nm and the retention time was 5.6 minutes. Assay developed by Pussard and co-workers were used and slight modifications were done to adjust laboratory conditions. Separation was done using a Prevail C18 (3 μm, 4.6x150mm) column attached to a Direct-connect^TM universal column prefilter. The mobile phase consisted of 20 mM (w/v) KH2PO4 in deionized water at pH 3.0 and acetonitrile (82:18) v/v. […] The injection volume was 40 μL and column oven was maintained at 30°C. The analytes were detected at 343 nm with a retention time of 2.4 minutes. […] Separations were performed using an Apollo C18 (5 μm, 4.6x150mm) column attached to matched guard column (5 μm, 4.6x5.5mm). […] The injection volume was 40 μL and column oven was maintained at 30°C. The analytes were detected at 660 nm with a retention time of 3.8 minutes. A 40 μL sample was spiked with 5 μL 0.5 mM artemisinin internal standard. […] The pipettor was adjusted to the maximum volume (100 μL). […] Pre-treated samples were loaded into the tips by gently aspirating and discarding into the same vial. The process was repeated 10 times in order to increase binding efficiency of drugs to the OMIX 96 C4 matrix. […] The LC-MS method described by […] and co-workers were modified to suit the LC-MS-MS conditions. […] Wexford, Ireland) at 40°C. […] Quantitation was performed in multiple reactions monitoring, MRM mode, using DUIS (ESI^+ and APCI^+) ion sources. […] The optimized mass spectra were acquired with an interface voltage of 4.5 kV, a detector voltage of 1.0 kV, a heat block temperature of 500°C and a desolvation temperature of 160°C.

[1] = as above; assay type: in vitro ADME, human; details: human; for Papp at 120 min: Caco-2, Caco-2 monolayers
Procedure: as §1

Question: With `OC(c1cc(C(F)(F)F)nc2c(C(F)(F)F)cccc12)C1CCCCN1` (centres unmarked) [MQ, mefloquine] as the compound, how does the Net flow direction (Caco-2 cell monolayers; Conc (μM) + inhibitor (μM): 10) read?
Answer: Its Net flow direction is “Diffusion (0.02) ^*”.

Question: What about the Net flow direction (Caco-2 cell monolayers; Conc (μM) + inhibitor (μM): 20) of the same compound?
Answer: The Net flow direction was “Diffusion (0.66)”.

Question: What about the Net flow direction (Caco-2 cell monolayers; Conc (μM) + inhibitor (μM): 100) of the same compound?
Answer: Its Net flow direction is “Diffusion (0.08)”.

Question: What about the “drug absorption predicted from Papp” value (Caco-2 cell monolayers; based on FDA biopharmaceutical classification system) of the same compound?
Answer: Its value is 50–84%.

Question: And the Papp at 120 min ([1]; drug alone, read-out: Ap-Bas directional Papp, range over concentrations tested)?
Answer: Its Papp at 120 min is 6 to 10 ×10⁻⁶ cm/s.

Question: And the Papp at 120 min ([1]; drug alone, read-out: Bas-Ap directional Papp, range over concentrations tested)?
Answer: The Papp at 120 min was 5 to 7 ×10⁻⁶ cm/s.

Question: What about the Papp at 120 min ([1]; read-out: permeability across the gastrointestinal epithelium (class)) of the same compound?
Answer: Its Papp at 120 min is 1 to 25 ×10⁻⁶ cm/s.

Question: And the Papp at 120 min ([1]; summary in abstract, methylene blue depending on the direction of transport, read-out: permeability)?
Answer: The Papp at 120 min was about 10 ×10⁻⁶ cm/s.

Question: What about the efflux ratio at 120 min, 100 µM ([1]; Caco-2, Conc (μM) + inhibitor (μM): 100, Bas-Ap divided by Ap-Bas) of the same compound?
Answer: The efflux ratio at 120 min, 100 µM was 1.2.

Question: And the efflux ratio at 120 min, 10 µM ([1]; Caco-2, Conc (μM) + inhibitor (μM): 10, Bas-Ap divided by Ap-Bas)?
Answer: Its efflux ratio at 120 min, 10 µM is 0.7.

Question: What about the Papp at 120 min, 10 µM ([1]; Caco-2, Conc (μM) + inhibitor (μM): 10, first-named drug measured, read-out: Papp Ap-Bas) of the same compound?
Answer: Its Papp at 120 min, 10 µM is 9.9 ± 0.7 ×10⁻⁶ cm/s.

Question: What about the Papp B→A at 120 min, 10 µM ([1]; Caco-2, Conc (μM) + inhibitor (μM): 10, first-named drug measured, read-out: Papp Bas-Ap) of the same compound?
Answer: Its Papp B→A at 120 min, 10 µM is 6.6 ± 0.4 ×10⁻⁶ cm/s.

Question: What about the efflux ratio at 120 min, 20 µM ([1]; Caco-2, Conc (μM) + inhibitor (μM): 20, Bas-Ap divided by Ap-Bas) of the same compound?
Answer: Its efflux ratio at 120 min, 20 µM is 0.9.

Question: What about the Papp at 120 min, 20 µM ([1]; Caco-2, Conc (μM) + inhibitor (μM): 20, first-named drug measured, read-out: Papp Ap-Bas) of the same compound?
Answer: The Papp at 120 min, 20 µM was 5.8 ± 0.7 ×10⁻⁶ cm/s.

Question: What about the Papp B→A at 120 min, 20 µM ([1]; Caco-2, Conc (μM) + inhibitor (μM): 20, first-named drug measured, read-out: Papp Bas-Ap) of the same compound?
Answer: Its Papp B→A at 120 min, 20 µM is 5.3 ± 0.9 ×10⁻⁶ cm/s.

Question: What about the Papp at 120 min, 100 µM ([1]; Caco-2, Conc (μM) + inhibitor (μM): 100, first-named drug measured, read-out: Papp Ap-Bas) of the same compound?
Answer: The Papp at 120 min, 100 µM was 8.9 ± 0.7 ×10⁻⁶ cm/s.

Question: What about the Papp B→A at 120 min, 100 µM ([1]; Caco-2, Conc (μM) + inhibitor (μM): 100, first-named drug measured, read-out: Papp Bas-Ap) of the same compound?
Answer: The Papp B→A at 120 min, 100 µM was 11.4 ± 0.8 ×10⁻⁶ cm/s.
